Data taken from ChEMBL document CHEMBL1138287, “Stereoselective synthesis of a novel 2-aza-7-oxabicyclo[3.3.0]octane as neurokinin-1 receptor antagonist” (Bioorg Med Chem Lett, 2007).

Assays:
Substance-P receptor = Substance-P receptor (Homo sapiens, UniProt P25103); test: Displacement of [3H]substance P from NK1 human receptor expressed in IM9 cells; assay type: cell-based, IM-9
Cavia porcellus [1] = test: Antagonist activity in guinea pig ureter assessed as inhibition of capsaicin-induced plasma extravasation at 10 mg/kg, po; assay type: functional
Cavia porcellus [2] = test: Antagonist activity in guinea pig ureter assessed as inhibition of capsaicin-induced plasma extravasation at 1 mg/kg, po; assay type: functional
Cavia porcellus [3] = organism: Cavia porcellus; test: Antagonist activity in guinea pig ureter assessed as inhibition of capsaicin-induced plasma extravasation; assay type: functional
[4] = molecular target: Voltage-gated L-type calcium channel (Rattus norvegicus, UniProt P22002+Q02485+P27732); test: Displacement of [3H]desmethoxyverapamil from verapamil binding site of L type calcium channel in rat heart

Chain of Substance-P receptor (P25103 whole entry): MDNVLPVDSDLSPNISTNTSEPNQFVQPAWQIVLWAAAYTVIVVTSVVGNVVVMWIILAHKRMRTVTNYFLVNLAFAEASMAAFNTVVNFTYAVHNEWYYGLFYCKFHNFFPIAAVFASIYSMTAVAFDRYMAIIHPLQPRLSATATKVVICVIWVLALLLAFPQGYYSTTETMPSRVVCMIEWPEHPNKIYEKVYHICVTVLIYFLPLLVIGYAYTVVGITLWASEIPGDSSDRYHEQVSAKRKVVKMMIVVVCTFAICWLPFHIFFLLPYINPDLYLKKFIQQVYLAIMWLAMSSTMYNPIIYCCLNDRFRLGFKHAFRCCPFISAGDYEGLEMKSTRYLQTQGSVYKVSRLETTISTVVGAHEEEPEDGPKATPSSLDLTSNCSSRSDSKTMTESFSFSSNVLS

IC50 (Substance-P receptor) [nM] | IC50 [4] [nM] | Compound | inhibition in vivo at 10 mg/kg (Cavia porcellus [1]) [%] | inhibition in vivo at 1 mg/kg (Cavia porcellus [2]) [%] | ED50 (Cavia porcellus [3]) [mg/kg]
0.22 | > 1000 | COc1ccc(OC(F)(F)F)cc1CN[C@H]1[C@@H]2COC[C@@H]2N[C@H]1c1ccccc1 (racemic) | 94 | 10 | 1
3.4 | > 1000 | COc1ccccc1CN[C@H]1[C@@H]2CCC[C@@H]2N[C@H]1c1ccccc1 (racemic) |  |  | 
